Tests used:
[1] = test system: KRas-mediated phosphorylation of ERK in MKN1 cells; assay: Inhibition of KRas-mediated phosphorylation of ERK (Cisbio HTRF pERK), MKN1 cells; type: cell-based; details: Homo sapiens, MKN-1
Procedure, shortened: (§1)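 HTRF pERK read-out; 6,000 cells/well, RPMI_10% FBS, overnight 37° C./5% CO2; 4 h covered incubation at RT before reading.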

KRas^WT = biological target: T1, KRas^WT (Homo sapiens, UniProt P01116); assay: KRas binding assay (TR-FRET tracer displacement), KRas WT; details: for inhibition at 0.01 µM: single point, 10 nM compound, TR-FRET
T1 construct: Biotinylated KRas (corresponding to amino acids 1-169, produced at Accelegan Inc.); biotin (biotinylated); purchased Accelegan Inc

KRas^G12S = biological target: T2, KRas^G12S (Homo sapiens, UniProt P01116, G12S); assay: KRas binding assay (TR-FRET tracer displacement), KRas G12S; details: for inhibition at 0.01 µM: single point, 10 nM compound, TR-FRET
T2 construct: Biotinylated KRas (corresponding to amino acids 1-169, produced at Accelegan Inc.); biotin (biotinylated); purchased Accelegan Inc

[2] = test system: KRas-mediated phosphorylation of ERK in A549 cells; assay: Inhibition of KRas-mediated phosphorylation of ERK (Cisbio HTRF pERK), A549 cells; type: cell-based; details: Homo sapiens, HTRF pERK
Procedure, shortened: (§2)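 A cell-based HTRF pERK assay: ten-point, threefold titrations beginning at 10 uM were applied for 3 hrs, with 0.2 uM Trametinib wells as the minimum control. Cells were lysed cold, and lysate was incubated with the antibody pair for 2 hrs before reading.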

[3] = test system: KRas-mediated phosphorylation of ERK in PSN1 cells; assay: Inhibition of KRas-mediated phosphorylation of ERK (Cisbio HTRF pERK), PSN1 cells; type: cell-based; details: Homo sapiens
Procedure, shortened: as §1

[4] = test system: KRas-mediated phosphorylation of ERK in HCT116 cells; assay: Inhibition of KRas-mediated phosphorylation of ERK (Cisbio HTRF pERK), HCT116 cells; type: cell-based; details: Homo sapiens; for inhibition at 0.1 µM: HCT-116, 3 h, single point, 100 nM compound, 3 hrs; for IC50: HCT-116, HTRF pERK
Procedure, shortened: as §2

KRas^G12C = biological target: T3, KRas^G12C (Homo sapiens, UniProt P01116, G12C); assay: KRas binding assay (TR-FRET tracer displacement), KRas G12C; details: for inhibition at 0.01 µM: single point, 10 nM compound, TR-FRET
T3 construct: Biotinylated KRas (corresponding to amino acids 1-169, produced at Accelegan Inc.); biotin (biotinylated); purchased Accelegan Inc

KRas^G12R = biological target: T4, KRas^G12R (Homo sapiens, UniProt P01116, G12R); assay: KRas binding assay (TR-FRET tracer displacement), KRas G12R
T4 construct: Biotinylated KRas (corresponding to amino acids 1-169, produced at Accelegan Inc.); biotin (biotinylated); purchased Accelegan Inc

KRas^G12V = biological target: T5, KRas^G12V (Homo sapiens, UniProt P01116, G12V); assay: KRas binding assay (TR-FRET tracer displacement), KRas G12V
T5 construct: Biotinylated KRas (corresponding to amino acids 1-169, produced at Accelegan Inc.); biotin (biotinylated); purchased Accelegan Inc

[5] = test system: KRas-mediated phosphorylation of ERK in H460 cells; assay: Inhibition of KRas-mediated phosphorylation of ERK (Cisbio HTRF pERK), H460 cells; type: cell-based; details: Homo sapiens; for inhibition at 0.1 µM: NCI-H460, 3 h, single point, 100 nM compound, 3 hrs; for IC50: NCI-H460, HTRF pERK
Procedure, shortened: (§3)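 Compound treatment lasts 3 hrs on 6,000 seeded cells, testing 10 doses from a 10 uM top concentration in 3-fold decrements at 0.8% final DMSO. Trametinib at 0.2 uM defines the Min signal. Detection is HTRF on cold-lysed cell extracts.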

KRas^G12D = biological target: T6, KRas^G12D (Homo sapiens, UniProt P01116, G12D); assay: KRas binding assay (TR-FRET tracer displacement), KRas G12D
T6 construct: Biotinylated KRas (corresponding to amino acids 1-169, produced at Accelegan Inc.); biotin (biotinylated); purchased Accelegan Inc

KRas^G12A = biological target: T7, KRas^G12A (Homo sapiens, UniProt P01116, G12A); assay: KRas binding assay (TR-FRET tracer displacement), KRas G12A; details: for inhibition at 0.01 µM: single point, 10 nM compound, TR-FRET
T7 construct: Biotinylated KRas (corresponding to amino acids 1-169, produced at Accelegan Inc.); biotin (biotinylated); purchased Accelegan Inc

KRas^Q61H = biological target: T8, KRas^Q61H (Homo sapiens, UniProt P01116, Q61H); assay: KRas binding assay (TR-FRET tracer displacement), KRas Q61H; details: for inhibition at 0.01 µM: single point, 10 nM compound, TR-FRET
T8 construct: Biotinylated KRas (corresponding to amino acids 1-169, produced at Accelegan Inc.); biotin (biotinylated); purchased Accelegan Inc

KRas^G13D = biological target: T9, KRas^G13D (Homo sapiens, UniProt P01116, G13D); assay: KRas binding assay (TR-FRET tracer displacement), KRas G13D; details: for inhibition at 0.01 µM: single point, 10 nM compound, TR-FRET
T9 construct: Biotinylated KRas (corresponding to amino acids 1-169, produced at Accelegan Inc.); biotin (biotinylated); purchased Accelegan Inc

[6] = test system: KRas-mediated phosphorylation of ERK in AsPC-1 cells; assay: Inhibition of KRas-mediated phosphorylation of ERK (Cisbio HTRF pERK), AsPC-1 cells; type: cell-based; details: Homo sapiens, ASPC1, AsPC-1 cells; HTRF pERK
Procedure, shortened: as §3

[7] = test system: KRas-mediated phosphorylation of ERK in H727 cells; assay: Inhibition of KRas-mediated phosphorylation of ERK (Cisbio HTRF pERK), H727 cells; type: cell-based; details: Homo sapiens, NCI-H727, H727 cells; HTRF pERK
Procedure, shortened: as §3

T5 sequence (P01116 1-169 isoform P01116-2 G12V): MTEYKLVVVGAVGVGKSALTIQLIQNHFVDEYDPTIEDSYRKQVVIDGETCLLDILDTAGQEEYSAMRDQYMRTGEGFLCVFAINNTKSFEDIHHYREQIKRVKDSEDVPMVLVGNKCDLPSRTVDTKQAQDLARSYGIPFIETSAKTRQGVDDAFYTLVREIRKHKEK
T6 sequence (P01116 1-169 isoform P01116-2 G12D): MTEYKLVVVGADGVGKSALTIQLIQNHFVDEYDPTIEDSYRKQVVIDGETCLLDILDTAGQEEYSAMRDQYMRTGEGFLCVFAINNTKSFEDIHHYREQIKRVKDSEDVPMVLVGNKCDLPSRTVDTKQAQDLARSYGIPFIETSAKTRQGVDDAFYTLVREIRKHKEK
T7 sequence (P01116 1-169 isoform P01116-2 G12A): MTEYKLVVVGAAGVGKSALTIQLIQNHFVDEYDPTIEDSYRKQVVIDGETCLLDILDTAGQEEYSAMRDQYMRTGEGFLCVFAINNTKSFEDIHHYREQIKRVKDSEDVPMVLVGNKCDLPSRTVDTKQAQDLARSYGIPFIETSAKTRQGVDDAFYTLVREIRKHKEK
T1 sequence (P01116 1-169 isoform P01116-2): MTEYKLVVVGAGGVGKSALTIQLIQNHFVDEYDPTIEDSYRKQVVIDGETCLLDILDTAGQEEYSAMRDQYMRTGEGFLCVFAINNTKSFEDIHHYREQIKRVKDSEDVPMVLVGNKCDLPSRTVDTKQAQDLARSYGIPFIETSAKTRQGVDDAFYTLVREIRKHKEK
T4 sequence (P01116 1-169 isoform P01116-2 G12R): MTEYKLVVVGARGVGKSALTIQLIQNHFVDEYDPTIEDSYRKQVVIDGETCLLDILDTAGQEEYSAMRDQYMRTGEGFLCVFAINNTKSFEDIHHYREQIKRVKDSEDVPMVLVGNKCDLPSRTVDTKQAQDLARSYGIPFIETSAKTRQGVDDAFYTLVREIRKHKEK
T3 sequence (P01116 1-169 isoform P01116-2 G12C): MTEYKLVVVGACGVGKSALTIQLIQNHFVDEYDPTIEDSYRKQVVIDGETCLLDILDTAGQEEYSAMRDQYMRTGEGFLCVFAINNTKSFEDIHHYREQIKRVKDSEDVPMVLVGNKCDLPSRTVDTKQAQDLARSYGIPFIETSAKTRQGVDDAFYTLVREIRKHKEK
T2 sequence (P01116 1-169 isoform P01116-2 G12S): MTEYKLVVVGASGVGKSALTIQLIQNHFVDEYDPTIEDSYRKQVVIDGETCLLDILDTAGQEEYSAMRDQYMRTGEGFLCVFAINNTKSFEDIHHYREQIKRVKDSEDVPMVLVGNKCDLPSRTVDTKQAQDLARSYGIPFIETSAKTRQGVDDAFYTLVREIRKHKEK
T9 sequence (P01116 1-169 isoform P01116-2 G13D): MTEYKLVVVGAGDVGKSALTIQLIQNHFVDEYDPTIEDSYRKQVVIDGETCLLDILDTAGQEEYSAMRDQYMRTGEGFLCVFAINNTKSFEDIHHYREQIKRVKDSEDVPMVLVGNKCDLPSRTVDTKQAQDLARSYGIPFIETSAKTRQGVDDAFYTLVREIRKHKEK
T8 sequence (P01116 1-169 isoform P01116-2 Q61H): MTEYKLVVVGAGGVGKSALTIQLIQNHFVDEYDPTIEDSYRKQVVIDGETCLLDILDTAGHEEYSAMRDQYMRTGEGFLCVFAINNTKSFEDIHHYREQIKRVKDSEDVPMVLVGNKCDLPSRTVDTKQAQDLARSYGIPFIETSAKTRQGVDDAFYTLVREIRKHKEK

Compound | IC50 [1] | inhibition at 0.01 µM (KRas^WT) | inhibition at 0.01 µM (KRas^G12S) | IC50 [2] | IC50 [3] | inhibition at 0.1 µM [4] | inhibition at 0.01 µM (KRas^G12C) | IC50 (KRas^G12R) | IC50 (KRas^G12V) | inhibition at 0.1 µM [5] | IC50 (KRas^G12D) | inhibition at 0.01 µM (KRas^G12A) | inhibition at 0.01 µM (KRas^Q61H) | inhibition at 0.01 µM (KRas^G13D) | IC50 [6] | IC50 [7] | IC50 [4] | IC50 [5] | other results
CCc1c(F)ccc2cc(O)cc(-c3ncc4c(N5CCOCC(C)(O)C5)nc(OCC56CCCN5[C@H](COC(=O)N(C)C)CC6)nc4c3F)c12 (stereo in doubt) [Example 710, ((3S,7aR)-7a-(((7-(8-ethyl-7-fluoro-3-hydroxynaphthalen-1-yl)-8-fluoro-4-(6-hydroxy-6-methyl-1,4-oxazepan-4-yl)pyrido[4,3-d]pyrimidin-2-yl)oxy)methyl)hexahydro-1H-pyrrolizin-3-yl)methyl dimethylcarbamate] | 25 nM | 80% | 83% | 47 nM | 2610 nM | 37% | 88% | 4 nM | 3 nM | 66% | 2 nM | 74% | 88% | 86% | 22 nM | 49 nM |  |  | 
CCc1c(F)ccc2cc(O)cc(-c3ncc4c(N5CCCn6nncc6C5)nc(OC[C@@]56CCCN5C[C@H](F)C6)nc4c3F)c12 [Example 562, 4-(4-(7,8-dihydro-4H-[1,2,3]triazolo[1,5-a][1,4]diazepin-5(6H)-yl)-8-fluoro-2-(((2R,7aS)-2-fluorohexahydro-1H-pyrrolizin-7a-yl)methoxy)pyrido[4,3-d]pyrimidin-7-yl)-5-ethyl-6-fluoronaphthalen-2-ol] | 35 nM | 62% | 81% | 496 nM | > 10000 nM |  | 76% | 3 nM | 3 nM |  | < 2 nM | 59% | 67% | 69% | 76 nM | 217 nM | 1060 nM | 438 nM | 
CCc1c(F)ccc2cc(O)cc(-c3ncc4c(N5C[C@@H]6C[C@H](C5)[C@H](O)[C@@H]6O)nc(OC[C@@]56CCCN5C[C@H](F)C6)nc4c3F)c12 [Example 568, (1R,5S,6R,7S)-3-(7-(8-ethyl-7-fluoro-3-hydroxynaphthalen-1-yl)-8-fluoro-2-(((2R,7aS)-2-fluorohexahydro-1H-pyrrolizin-7a-yl)methoxy)pyrido[4,3-d]pyrimidin-4-yl)-3-azabicyclo[3.2.1]octane-6,7-diol] | 2 nM | 97% | 98% | 19 nM | 1380 nM |  | 96% | < 2 nM | < 2 nM |  | < 2 nM | 94% | 98% | 98% | 62 nM | 33 nM | 29 nM | 17 nM | 
CCc1c(F)ccc2cc(O)cc(-c3ncc4c(N5CCC(O)C(F)(F)CC5)nc(OC[C@@]56CCCN5C[C@H](F)C6)nc4c3F)c12 (stereo partly drawn) [Example 586, 1-(7-(8-ethyl-7-fluoro-3-hydroxynaphthalen-1-yl)-8-fluoro-2-(((2R,7aS)-2-fluorotetrahydro-1H-pyrrolizin-7a(5H)-yl)methoxy)pyrido[4,3-d]pyrimidin-4-yl)-5,5-difluoroazepan-4-ol] | 25 nM | 91% | 93% | 65 nM | 3770 nM | 42% | 93% | 4 nM | 3 nM | 56% | 6 nM | 91% | 90% | 93% | 94 nM | 85 nM |  |  | 
CCc1c(F)ccc2cc(O)cc(-c3ncc4c(N5CCCC6(CC(O)C6)C5)nc(OCC5(CN(C)C)CC5)nc4c3F)c12 (stereo not shown) [Example 698, 6-(2-((1-((dimethylamino)methyl)cyclopropyl)methoxy)-7-(8-ethyl-7-fluoro-3-hydroxynaphthalen-1-yl)-8-fluoropyrido[4,3-d]pyrimidin-4-yl)-6-azaspiro[3.5]nonan-2-ol] | 17 nM | 82% | 86% | 141 nM | 4150 nM |  | 91% | < 2 nM | < 2 nM |  | 2 nM | 77% | 88% | 84% | 87 nM | 68 nM | 188 nM | 72 nM | 
CCc1c(F)ccc2cc(O)cc(-c3ncc4c(N5CCC[C@@](C)(O)C5)nc(OC[C@@]56CCCN5[C@H](COC(=O)NC)CC6)nc4c3F)c12 [Example 706, ((3S,7aS)-7a-(((7-(8-ethyl-7-fluoro-3-hydroxynaphthalen-1-yl)-8-fluoro-4-((R)-3-hydroxy-3-methylpiperidin-1-yl)pyrido[4,3-d]pyrimidin-2-yl)oxy)methyl)hexahydro-1H-pyrrolizin-3-yl)methyl methylcarbamate] | 9 nM | 84% | 85% | 112 nM | 2780 nM |  | 89% | 2 nM | < 2 nM |  | 3 nM | 82% | 88% | 89% | 45 nM | 83 nM | 85 nM | 39 nM | 
CCNC(=O)OC[C@@H]1CC[C@]2(COc3nc(N4CCC[C@@](C)(O)C4)c4cnc(-c5cc(O)cc6ccc(F)c(CC)c56)c(F)c4n3)CCCN12 [Example 717, ((3S,7aS)-7a-(((7-(8-ethyl-7-fluoro-3-hydroxynaphthalen-1-yl)-8-fluoro-4-((R)-3-hydroxy-3-methylpiperidin-1-yl)pyrido[4,3-d]pyrimidin-2-yl)oxy)methyl)hexahydro-1H-pyrrolizin-3-yl)methyl ethylcarbamate] | 3 nM | 92% | 92% | 47 nM | 1820 nM |  | 93% | < 2 nM | < 2 nM |  | < 2 nM | 90% | 92% | 94% | 22 nM | 44 nM | 84 nM | 30 nM | 
CN(C)C(=O)c1cc2n(n1)CCCN(c1nc(OC[C@@]34CCCN3C[C@H](F)C4)nc3c(F)c(-c4c5ccccc5cc5[nH]ncc45)ncc13)C2 [Example 761, 5-(7-(1H-benzo[f]indazol-4-yl)-8-fluoro-2-(((2R,7aS)-2-fluorohexahydro-1H-pyrrolizin-7a-yl)methoxy)pyrido[4,3-d]pyrimidin-4-yl)-N,N-dimethyl-5,6,7,8-tetrahydro-4H-pyrazolo[1,5-a][1,4]diazepine-2-carboxamide] | > 10000 nM |  |  |  | > 10000 nM | -13% |  | 74 nM | 23 nM | 11% | 8 nM |  |  |  | 4320 nM | 1280 nM |  |  | IC50 (KRas^WT; TR-FRET tracer displacement, KRas WT): 106 nM; IC50 (KRas^G12S; TR-FRET tracer displacement, KRas G12S): 33 nM; IC50 (KRas^G12C; TR-FRET tracer displacement, KRas G12C): 41 nM; IC50 (KRas^G12A; TR-FRET tracer displacement, KRas G12A): 65 nM; IC50 (KRas^Q61H; TR-FRET tracer displacement, KRas Q61H): 151 nM; IC50 (KRas^G13D; TR-FRET tracer displacement, KRas G13D): 177 nM

From patent US20260015350A1, “AZAQUINAZOLINE PAN-KRAS INHIBITORS” (Mirati Therapeutics, Inc., priority 2022, published 2026)
